Test results taken from PMC9090415, “Discovery of small molecule inhibitors of Plasmodium falciparum apicoplast DNA polymerase” (Journal of Enzyme Inhibition and Medicinal Chemistry, 2022).

Biological target: P. falciparum apicoplast DNA polymerase (Pf-apPOL) (Plasmodium falciparum, UniProt Q8ILY1)
Assay: Fluorescence-based high-throughput DNA polymerase assay (molecular beacon), primary screen and dose-response
Assay type: biochemical
Settings: for DNA Pol: unit not given, 90 min, 10 µM
Method in brief: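 Single-point screening used 10 µM compound with 20 nM polymerase, 20 nM hairpin substrate and 6 µM dNTPs for 90 min at 25 °C. Confirmatory titrations (2.5–80 µM) followed fluorescence at three times, and IC50 was derived from a fit including a cooperativity term n.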

Sequence of P. falciparum apicoplast DNA polymerase (Pf-apPOL) (Q8ILY1 entry or part of it): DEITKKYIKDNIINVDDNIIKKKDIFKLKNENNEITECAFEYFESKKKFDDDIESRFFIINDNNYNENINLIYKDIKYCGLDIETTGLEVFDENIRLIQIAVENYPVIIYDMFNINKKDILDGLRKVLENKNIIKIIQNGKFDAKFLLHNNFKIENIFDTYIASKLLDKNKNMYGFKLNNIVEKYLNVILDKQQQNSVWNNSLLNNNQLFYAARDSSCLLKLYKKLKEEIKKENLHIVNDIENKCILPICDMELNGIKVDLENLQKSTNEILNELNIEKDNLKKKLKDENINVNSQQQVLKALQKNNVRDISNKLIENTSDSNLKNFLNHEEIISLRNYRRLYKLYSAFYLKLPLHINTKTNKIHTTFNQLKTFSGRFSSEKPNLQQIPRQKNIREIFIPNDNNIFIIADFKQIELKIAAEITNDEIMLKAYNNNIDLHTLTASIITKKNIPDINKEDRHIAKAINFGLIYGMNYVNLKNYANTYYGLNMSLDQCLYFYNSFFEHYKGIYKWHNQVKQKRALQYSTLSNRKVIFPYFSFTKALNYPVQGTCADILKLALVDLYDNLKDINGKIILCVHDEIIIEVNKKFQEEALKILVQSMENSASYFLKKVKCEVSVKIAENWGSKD

O=C(Cn1ccc2c(=O)[nH]ccc21)Nc1cccc(Cl)c1 [Molecule 23, O=C(Cn1ccc2c1cc[nH]c2=O)Nc1cccc(c1)Cl]
% inhibition Apo pol 10' (DRC-1, concentration 2.5): 1.228%
% inhibition Apo pol 10' (DRC-1, concentration 5): 14.8384%
% inhibition Apo pol 10' (DRC-1, concentration 10): 62.4441%
% inhibition Apo pol 10' (DRC-1, concentration 20): 81.0439%
% inhibition Apo pol 10' (DRC-1, concentration 40): 80.7703%
% inhibition Apo pol 10' (DRC-1, concentration 80): 68.5193%
% inhibition Apol 90' (DRC-1, 90', concentration 2.5): -3.118%
% inhibition Apol 90' (DRC-1, 90', concentration 5): 4.6922%
% inhibition Apol 90' (DRC-1, 90', concentration 10): 48.8063%
% inhibition Apol 90' (DRC-1, 90', concentration 20): 74.6886%
% inhibition Apol 90' (DRC-1, 90', concentration 40): 82.985%
% inhibition Apol 90' (DRC-1, 90', concentration 80): 79.3379%
% inhibition apPOL 180' (DRC-1, 180', concentration 2.5): -7.139%
% inhibition apPOL 180' (DRC-1, 180', concentration 5): -3.837%
% inhibition apPOL 180' (DRC-1, 180', concentration 10): 31.8886%
% inhibition apPOL 180' (DRC-1, 180', concentration 20): 62.9592%
% inhibition apPOL 180' (DRC-1, 180', concentration 40): 80.4785%
% inhibition apPOL 180' (DRC-1, 180', concentration 80): 82.7611%
% inhibition Apol 40' (DRC-2, 40', concentration 10 (unit not given)): 63%
% inhibition Apol 40' (DRC-2, 40', concentration 20 (unit not given)): 65%
% inhibition ApPOL 90' (DRC-2, 90', concentration 10 (unit not given)): 63%
% inhibition ApPOL 90' (DRC-2, 90', concentration 80 (unit not given)): 57%
% inhibition apPOL 180' (DRC-2, 180', concentration 10 (unit not given)): 57%
% inhibition apPOL 180' (DRC-2, 180', concentration 80 (unit not given)): 65%
% inhibition Apo pol 5' (DRC-2, concentration 2.5): 7%
% inhibition Apo pol 5' (DRC-2, concentration 5): 28%
% inhibition Apo pol 5' (DRC-2, concentration 10): 46%
% inhibition Apo pol 5' (DRC-2, concentration 20): 43%
% inhibition Apo pol 5' (DRC-2, concentration 40): 34%
% inhibition Apo pol 5' (DRC-2, concentration 80): 19%
% inhibition Apol 40' (DRC-2, 40', concentration 2.5): 6%
% inhibition Apol 40' (DRC-2, 40', concentration 5): 35%
% inhibition Apol 40' (DRC-2, 40', concentration 10): 63%
% inhibition Apol 40' (DRC-2, 40', concentration 20): 65%
% inhibition Apol 40' (DRC-2, 40', concentration 40): 60%
% inhibition Apol 40' (DRC-2, 40', concentration 80): 49%
% inhibition ApPOL 90' (DRC-2, 90', concentration 2.5): 3%
% inhibition ApPOL 90' (DRC-2, 90', concentration 5): 31%
% inhibition ApPOL 90' (DRC-2, 90', concentration 10): 63%
% inhibition ApPOL 90' (DRC-2, 90', concentration 20): 69%
% inhibition ApPOL 90' (DRC-2, 90', concentration 40): 67%
% inhibition ApPOL 90' (DRC-2, 90', concentration 80): 57%
% inhibition apPOL 180' (DRC-2, 180', concentration 2.5): -5%
% inhibition apPOL 180' (DRC-2, 180', concentration 5): 18%
% inhibition apPOL 180' (DRC-2, 180', concentration 10): 57%
% inhibition apPOL 180' (DRC-2, 180', concentration 20): 71%
% inhibition apPOL 180' (DRC-2, 180', concentration 40): 72%
% inhibition apPOL 180' (DRC-2, 180', concentration 80): 65%
DNA Pol (primary screen value of the 186 hits): 79
DNA Pol (primary screen value, head "DNA Pol"): 79

O=C(Cn1ccc2c(=O)[nH]ccc21)Nc1cccc(Cl)c1 [Molecule 23]
IC50 (supplemental file 2, sheet IC50 nontoxic compounds, Pf-apPOL): 9.11 µM
